Test results from US20170097358A1, “EARLY DETECTION OF PREECLAMPSIA” (Igenomix S.L., priority 2014, published 2017).

What was measured:
Assay type in all cases: cell-based, human
[1] = test system: plasminogen; test: Plasminogen level in hESC conditioned media by ELISA; details: heparin 100 ug/mL; control siRNA, ANXA2 siRNA, non-PE and sPE decidualized hESCs (all conditions)
Method: Plasminogen level was evaluated in conditioned media by ELISA kit (Cell Biolabs, CA, USA) following manufacturer's instructions. Average absorbance (Δ450 nm) in duplicate wells was calculated by subtracting the background from wells with media without hESC.
(§1) hESCs were cultured on monolayer in presence of 50 μg/mL and 100 μg/mL of heparin (Sigma, Madrid, during 15, 30 and 60 min to elaborate a dose-response experiment. Conditioned media from hESC cells were collected to analyze plasminogen levels, plasmin activity and metalloproteases production.

[2] = test system: ANXA2; test: Secreted extracellular ANXA2 in hESC conditioned media by ELISA; details: heparin treatment; control, ANXA2 siRNA and sPE hESCs
Method: Protein extracts (2 μg/well) and conditioned media were analyzed by ELISA (R&D Systems, MN, USA). Inmobilized capture antibody specifically binds Annexin A2. After washing away un-bounded material, a biotinylated detection antibody specific for Annexin A2 is used to detect the bound Annexin A2, using a standard Streptavidin-HRP format. Three replicates were performed for each condition and the absorbance values were extrapolated to standard curve to establish human Annexin A2 concentration (pg/mL).
as §1

[3] = test system: MMP9; test: MMP9 level in hESC conditioned media by ELISA; details: heparin treatment, all hESC conditions
Method: (§2) MMP2 and MMP9 pro and active protein forms were evaluated by commercial ELISA analysis (RayBiotech, GA, USA). These assays employ an antibody specific for humans MMP-2 and MMP-9 coated on a 96-well plate. Standards and samples are pipette by duplicated into the wells and MMP-2 and MMP-9 present in a sample is bound to the wells by the immobilized antibody. Biotinylated anti-human MMP-2 and MMP-9 and HRP-conjugated streptavidin were added. TMB substrate solutions were added and absorbance at 450 nm was extrapolated to standard curve.
as §1

[4] = test system: MMP2; test: MMP2 level in hESC conditioned media by ELISA; details: heparin treatment, all hESC conditions
Method: as §2, §1

[5] = test system: plasmin; test: Plasmin activity in hESC conditioned media, fluorimetric assay; details: heparin 100 ug/mL
Method: Plasmin activity was measured in conditioned media by fluorimetric assay kit (Anaspec, CA, USA). It is based in a protease cleavage to plasmin substrate that generates a rhodamine 110 fluorophore which has a bright green fluorescence detected at 496 nm/520 nm (excitation/emission). Fifty microlitres of conditioned media was pre-incubated 10 min at room temperature and 50 uL of plasmin substrate solution was added into each well. Fluorescence signal was obtain for kinetic reading immediately start measuring and record data every 5 min for 60 min, with a total of 13 lectures. Each condition was evaluated in duplicate. The fluorescence was Interpol to concentration values using an Rh110 fluorescence reference standard.
as §1

Question: What does the source list for heparin?
Answer: Plasminogen secretion into the conditioned media [1]: significantly increased; ANXA2 protein secreted to the culture media [2]: significant increase; MMP9 production [3]: significant increase; MMP2 production [4]: significant increase; Plasmin activity ([5]; ANXA2 siRNA hESCs and hESCs from sPE): significant increase; Plasmin activity in conditioned media ([5]; control siRNA, ANXA2 siRNA, non-PE and sPE decidualized hESCs (all conditions)): significantly increased
